According to patent US11358949B2, “Carbamate and urea compounds as multikinase inhibitors” (ANGEX PHARMACEUTICAL, INC., priority 2017, dated 2022):

How the values were obtained:
[1] = target: T1, AXL (Homo sapiens, UniProt P30530); assay: HotSpot Kinase Assay, AXL
T1 sequence (P30530 26-894): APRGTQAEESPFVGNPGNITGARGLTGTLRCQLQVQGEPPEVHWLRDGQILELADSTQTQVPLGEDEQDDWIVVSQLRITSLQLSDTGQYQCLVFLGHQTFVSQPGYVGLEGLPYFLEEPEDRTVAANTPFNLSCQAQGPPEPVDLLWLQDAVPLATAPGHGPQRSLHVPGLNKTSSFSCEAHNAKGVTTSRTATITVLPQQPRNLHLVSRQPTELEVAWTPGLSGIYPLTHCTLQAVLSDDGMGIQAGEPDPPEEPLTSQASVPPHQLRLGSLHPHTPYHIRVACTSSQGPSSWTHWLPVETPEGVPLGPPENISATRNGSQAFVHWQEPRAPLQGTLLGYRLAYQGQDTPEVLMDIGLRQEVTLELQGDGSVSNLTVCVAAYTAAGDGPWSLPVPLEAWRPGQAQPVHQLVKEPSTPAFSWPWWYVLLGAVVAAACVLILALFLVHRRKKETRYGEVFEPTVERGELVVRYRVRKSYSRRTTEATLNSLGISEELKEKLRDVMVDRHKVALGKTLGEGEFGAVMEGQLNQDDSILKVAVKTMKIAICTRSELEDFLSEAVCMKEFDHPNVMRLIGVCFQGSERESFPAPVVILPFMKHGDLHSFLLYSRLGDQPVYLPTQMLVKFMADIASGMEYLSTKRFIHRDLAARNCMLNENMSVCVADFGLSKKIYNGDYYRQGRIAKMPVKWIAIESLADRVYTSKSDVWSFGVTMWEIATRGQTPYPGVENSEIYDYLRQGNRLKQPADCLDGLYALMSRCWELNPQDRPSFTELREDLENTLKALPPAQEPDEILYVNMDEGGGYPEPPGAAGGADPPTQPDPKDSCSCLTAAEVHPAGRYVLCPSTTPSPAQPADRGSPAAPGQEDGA
Procedure: (§1) Specifically, for each reaction, kinase and substrate were mixed in a pH 7.5 buffer containing 20 mM HEPES, 10 mM MgCl2, 1 mM EGTA [Ethylene glycol-bis(2-aminoethylether)-N,N,N′,N′-tetraacetic acid], 0.02% Brij35, 0.02 mg/mL BSA (Bovine Serum Albumin), 0.1 mM Na3VO4, 2 mM DTT, and 1% DMSO. Compounds were then added to each reaction mixture. After a 20-min incubation, ATP (Sigma-Aldrich) and [γ-^33P] ATP (PerkinElmer) were added at a final total concentration of 100 μM. Reactions were carried out at room temperature for 2 hours and spotted onto P81 ion exchange cellulose chromatography paper (Whatman). […] The percent remaining kinase activity relative to a vehicle-containing (DMSO) kinase reaction was calculated for each kinase/inhibitor pair. […] IC50 values were calculated using Prism 5 (GraphPad).

[2] = target: BRK (Homo sapiens, UniProt Q13882); assay: HotSpot Kinase Assay, BRK
Procedure: as §1

[3] = target: LCK (Homo sapiens, UniProt P06239); assay: HotSpot Kinase Assay, LCK
Procedure: as §1

[4] = target: BLK (Homo sapiens, UniProt P51451); assay: HotSpot Kinase Assay, BLK
BLK, sequence (P51451 whole entry): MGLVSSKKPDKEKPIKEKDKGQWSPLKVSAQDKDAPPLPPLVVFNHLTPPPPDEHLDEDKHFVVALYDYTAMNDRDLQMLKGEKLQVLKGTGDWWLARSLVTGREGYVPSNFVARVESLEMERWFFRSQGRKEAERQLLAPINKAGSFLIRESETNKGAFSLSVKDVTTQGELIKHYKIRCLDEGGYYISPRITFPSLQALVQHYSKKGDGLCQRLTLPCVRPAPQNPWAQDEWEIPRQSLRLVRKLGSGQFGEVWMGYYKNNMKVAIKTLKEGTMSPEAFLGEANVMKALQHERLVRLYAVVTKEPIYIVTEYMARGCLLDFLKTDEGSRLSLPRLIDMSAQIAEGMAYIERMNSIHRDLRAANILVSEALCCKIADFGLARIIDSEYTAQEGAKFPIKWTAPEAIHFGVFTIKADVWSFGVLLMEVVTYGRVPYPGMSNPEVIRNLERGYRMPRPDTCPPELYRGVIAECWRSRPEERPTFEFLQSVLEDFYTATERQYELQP
Procedure: as §1

[5] = target: DDR2 (Homo sapiens, UniProt Q16832); assay: HotSpot Kinase Assay, DDR2
DDR2, sequence (Q16832 22-855): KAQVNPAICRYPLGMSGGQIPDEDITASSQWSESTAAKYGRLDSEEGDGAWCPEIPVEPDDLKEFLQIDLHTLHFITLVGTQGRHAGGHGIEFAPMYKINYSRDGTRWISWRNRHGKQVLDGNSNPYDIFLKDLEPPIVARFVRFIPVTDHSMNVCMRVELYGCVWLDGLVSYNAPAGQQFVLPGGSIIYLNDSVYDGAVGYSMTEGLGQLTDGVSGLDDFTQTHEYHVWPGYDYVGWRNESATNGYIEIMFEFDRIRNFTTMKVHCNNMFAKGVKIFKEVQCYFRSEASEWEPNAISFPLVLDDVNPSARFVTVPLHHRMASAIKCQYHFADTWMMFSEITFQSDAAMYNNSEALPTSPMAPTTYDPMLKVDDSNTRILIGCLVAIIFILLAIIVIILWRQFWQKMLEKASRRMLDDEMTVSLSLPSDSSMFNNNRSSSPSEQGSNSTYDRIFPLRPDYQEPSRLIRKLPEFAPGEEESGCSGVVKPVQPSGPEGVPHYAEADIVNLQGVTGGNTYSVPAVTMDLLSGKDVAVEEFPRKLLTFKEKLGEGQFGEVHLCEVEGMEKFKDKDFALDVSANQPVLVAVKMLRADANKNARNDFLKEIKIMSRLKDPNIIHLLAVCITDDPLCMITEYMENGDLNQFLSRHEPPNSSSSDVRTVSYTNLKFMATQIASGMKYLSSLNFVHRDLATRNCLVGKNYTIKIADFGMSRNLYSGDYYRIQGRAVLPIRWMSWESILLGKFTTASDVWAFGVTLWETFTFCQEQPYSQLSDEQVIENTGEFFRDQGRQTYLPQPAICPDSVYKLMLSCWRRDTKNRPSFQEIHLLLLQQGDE
Procedure: as §1

[6] = target: MNK2 (Homo sapiens, UniProt Q9HBH9); assay: HotSpot Kinase Assay, MNK2
MNK2, sequence (Q9HBH9 whole entry): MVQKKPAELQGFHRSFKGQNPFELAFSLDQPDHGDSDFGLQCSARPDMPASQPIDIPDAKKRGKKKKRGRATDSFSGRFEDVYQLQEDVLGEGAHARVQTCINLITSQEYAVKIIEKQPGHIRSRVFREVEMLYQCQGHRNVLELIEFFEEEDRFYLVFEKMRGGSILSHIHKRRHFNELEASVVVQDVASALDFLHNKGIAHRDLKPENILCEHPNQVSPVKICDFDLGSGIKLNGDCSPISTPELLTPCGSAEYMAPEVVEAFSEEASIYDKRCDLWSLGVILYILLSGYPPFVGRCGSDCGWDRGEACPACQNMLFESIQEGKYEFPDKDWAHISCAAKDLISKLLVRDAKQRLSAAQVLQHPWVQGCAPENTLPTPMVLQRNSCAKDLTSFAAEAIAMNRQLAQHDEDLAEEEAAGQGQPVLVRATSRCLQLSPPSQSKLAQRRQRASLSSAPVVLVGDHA
Procedure: as §1

[7] = target: FLT1 (Homo sapiens, UniProt P17948); assay: HotSpot Kinase Assay, FLT1
Procedure: as §1

[8] = target: FLT4 (Homo sapiens, UniProt P35916); assay: HotSpot Kinase Assay, FLT4
FLT4, sequence (P35916 25-1363): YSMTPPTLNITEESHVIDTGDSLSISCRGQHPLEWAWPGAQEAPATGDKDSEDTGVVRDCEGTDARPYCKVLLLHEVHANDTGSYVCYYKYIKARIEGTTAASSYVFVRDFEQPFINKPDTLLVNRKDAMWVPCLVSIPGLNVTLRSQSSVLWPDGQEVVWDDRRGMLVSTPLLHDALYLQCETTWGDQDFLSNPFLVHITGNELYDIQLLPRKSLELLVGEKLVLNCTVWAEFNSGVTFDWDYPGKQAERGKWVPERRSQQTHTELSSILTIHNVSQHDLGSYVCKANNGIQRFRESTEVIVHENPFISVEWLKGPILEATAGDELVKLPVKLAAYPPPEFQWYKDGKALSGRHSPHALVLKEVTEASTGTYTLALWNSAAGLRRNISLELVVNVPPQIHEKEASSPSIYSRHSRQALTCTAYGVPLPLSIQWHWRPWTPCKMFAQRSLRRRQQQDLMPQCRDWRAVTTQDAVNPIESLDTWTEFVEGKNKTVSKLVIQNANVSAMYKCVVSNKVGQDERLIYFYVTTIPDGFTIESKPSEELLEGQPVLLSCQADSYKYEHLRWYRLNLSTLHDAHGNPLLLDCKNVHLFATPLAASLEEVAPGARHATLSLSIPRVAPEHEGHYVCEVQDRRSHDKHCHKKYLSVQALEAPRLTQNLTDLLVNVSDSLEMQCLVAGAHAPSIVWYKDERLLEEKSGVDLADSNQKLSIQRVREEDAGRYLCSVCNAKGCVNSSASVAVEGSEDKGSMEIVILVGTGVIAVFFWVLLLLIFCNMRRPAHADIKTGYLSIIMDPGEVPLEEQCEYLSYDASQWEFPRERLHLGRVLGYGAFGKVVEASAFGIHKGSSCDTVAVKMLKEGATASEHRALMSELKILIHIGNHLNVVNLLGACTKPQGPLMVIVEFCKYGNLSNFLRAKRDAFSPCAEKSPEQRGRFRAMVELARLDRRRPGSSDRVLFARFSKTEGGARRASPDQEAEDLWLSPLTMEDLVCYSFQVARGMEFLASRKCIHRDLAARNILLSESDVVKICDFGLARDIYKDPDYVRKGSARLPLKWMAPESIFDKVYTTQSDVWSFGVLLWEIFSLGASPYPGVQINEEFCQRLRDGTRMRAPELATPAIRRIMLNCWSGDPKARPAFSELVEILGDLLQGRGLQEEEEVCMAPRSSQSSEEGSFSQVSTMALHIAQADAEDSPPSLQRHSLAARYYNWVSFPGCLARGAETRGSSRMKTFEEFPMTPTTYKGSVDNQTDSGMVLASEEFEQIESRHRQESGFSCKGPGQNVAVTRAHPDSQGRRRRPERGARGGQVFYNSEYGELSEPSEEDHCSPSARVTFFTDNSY
Procedure: as §1

[9] = target: T2, c-MER (Homo sapiens, UniProt Q12866); assay: HotSpot Kinase Assay, c-MER
T2 sequence (Q12866 21-999): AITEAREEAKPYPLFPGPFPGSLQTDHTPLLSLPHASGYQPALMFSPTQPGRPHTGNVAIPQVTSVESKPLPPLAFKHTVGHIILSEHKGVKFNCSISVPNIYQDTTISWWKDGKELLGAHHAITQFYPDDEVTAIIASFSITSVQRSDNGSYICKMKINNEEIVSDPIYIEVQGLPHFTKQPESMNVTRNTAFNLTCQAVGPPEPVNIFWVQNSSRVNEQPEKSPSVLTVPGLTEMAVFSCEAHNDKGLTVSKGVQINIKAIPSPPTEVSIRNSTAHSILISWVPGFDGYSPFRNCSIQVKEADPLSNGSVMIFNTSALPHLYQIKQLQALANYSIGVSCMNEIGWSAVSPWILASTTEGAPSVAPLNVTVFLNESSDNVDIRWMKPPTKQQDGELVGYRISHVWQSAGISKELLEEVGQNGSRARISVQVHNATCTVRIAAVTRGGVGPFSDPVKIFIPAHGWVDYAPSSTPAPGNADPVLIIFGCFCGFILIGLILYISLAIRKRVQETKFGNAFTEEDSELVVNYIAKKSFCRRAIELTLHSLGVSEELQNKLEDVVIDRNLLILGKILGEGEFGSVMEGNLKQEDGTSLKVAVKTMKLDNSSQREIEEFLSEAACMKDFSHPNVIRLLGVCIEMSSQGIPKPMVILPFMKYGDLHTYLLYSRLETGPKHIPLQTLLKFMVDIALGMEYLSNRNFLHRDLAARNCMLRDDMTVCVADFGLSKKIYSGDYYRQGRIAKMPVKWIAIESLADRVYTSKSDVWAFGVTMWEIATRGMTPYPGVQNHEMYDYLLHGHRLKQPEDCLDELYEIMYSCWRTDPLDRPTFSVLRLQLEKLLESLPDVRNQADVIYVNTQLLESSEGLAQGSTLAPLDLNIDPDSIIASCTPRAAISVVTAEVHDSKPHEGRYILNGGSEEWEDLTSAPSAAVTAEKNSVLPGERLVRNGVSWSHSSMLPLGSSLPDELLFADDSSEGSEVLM
Procedure: as §1

[10] = target: EPHA2 (Homo sapiens, UniProt P29317); assay: HotSpot Kinase Assay, EPHA2
EPHA2, sequence (P29317 24-976): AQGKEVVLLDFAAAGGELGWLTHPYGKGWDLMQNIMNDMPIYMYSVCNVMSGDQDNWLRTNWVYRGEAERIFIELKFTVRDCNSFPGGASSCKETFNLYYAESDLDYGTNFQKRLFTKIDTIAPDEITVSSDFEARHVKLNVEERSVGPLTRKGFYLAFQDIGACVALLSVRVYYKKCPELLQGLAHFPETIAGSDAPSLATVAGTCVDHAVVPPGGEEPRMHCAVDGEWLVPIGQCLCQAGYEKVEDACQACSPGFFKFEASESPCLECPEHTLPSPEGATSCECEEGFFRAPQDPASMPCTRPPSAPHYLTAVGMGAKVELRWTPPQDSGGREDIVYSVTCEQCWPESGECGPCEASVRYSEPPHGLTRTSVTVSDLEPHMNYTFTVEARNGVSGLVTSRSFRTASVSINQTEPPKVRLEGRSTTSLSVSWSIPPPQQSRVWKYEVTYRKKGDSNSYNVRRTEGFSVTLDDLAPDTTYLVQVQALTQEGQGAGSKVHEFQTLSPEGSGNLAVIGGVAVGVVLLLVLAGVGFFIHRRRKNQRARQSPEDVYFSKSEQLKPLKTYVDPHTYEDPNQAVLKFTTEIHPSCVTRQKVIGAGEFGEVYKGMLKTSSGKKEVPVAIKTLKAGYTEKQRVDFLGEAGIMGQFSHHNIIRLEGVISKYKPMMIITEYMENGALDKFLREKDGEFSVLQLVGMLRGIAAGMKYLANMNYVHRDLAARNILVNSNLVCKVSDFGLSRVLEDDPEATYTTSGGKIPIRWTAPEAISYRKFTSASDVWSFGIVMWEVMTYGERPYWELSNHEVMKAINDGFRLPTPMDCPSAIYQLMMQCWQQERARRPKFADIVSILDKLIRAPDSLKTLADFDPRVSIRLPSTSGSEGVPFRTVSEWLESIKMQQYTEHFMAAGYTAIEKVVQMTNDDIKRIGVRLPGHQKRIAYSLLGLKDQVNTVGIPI
Procedure: as §1

[11] = target: EPHA3 (Homo sapiens, UniProt P29320); assay: HotSpot Kinase Assay, EPHA3
Procedure: as §1

[12] = target: EPHA4 (Homo sapiens, UniProt P54764); assay: HotSpot Kinase Assay, EPHA4
Procedure: as §1

[13] = target: PDGFβ (Homo sapiens, UniProt P09619); assay: HotSpot Kinase Assay, PDGFβ
Procedure: as §1

[14] = target: FRK/PTK5 (Homo sapiens, UniProt P42685); assay: HotSpot Kinase Assay, FRK/PTK5
Procedure: as §1

[15] = target: LOK/STK10 (Homo sapiens, UniProt O94804); assay: HotSpot Kinase Assay, LOK/STK10
LOK/STK10, sequence (O94804 whole entry): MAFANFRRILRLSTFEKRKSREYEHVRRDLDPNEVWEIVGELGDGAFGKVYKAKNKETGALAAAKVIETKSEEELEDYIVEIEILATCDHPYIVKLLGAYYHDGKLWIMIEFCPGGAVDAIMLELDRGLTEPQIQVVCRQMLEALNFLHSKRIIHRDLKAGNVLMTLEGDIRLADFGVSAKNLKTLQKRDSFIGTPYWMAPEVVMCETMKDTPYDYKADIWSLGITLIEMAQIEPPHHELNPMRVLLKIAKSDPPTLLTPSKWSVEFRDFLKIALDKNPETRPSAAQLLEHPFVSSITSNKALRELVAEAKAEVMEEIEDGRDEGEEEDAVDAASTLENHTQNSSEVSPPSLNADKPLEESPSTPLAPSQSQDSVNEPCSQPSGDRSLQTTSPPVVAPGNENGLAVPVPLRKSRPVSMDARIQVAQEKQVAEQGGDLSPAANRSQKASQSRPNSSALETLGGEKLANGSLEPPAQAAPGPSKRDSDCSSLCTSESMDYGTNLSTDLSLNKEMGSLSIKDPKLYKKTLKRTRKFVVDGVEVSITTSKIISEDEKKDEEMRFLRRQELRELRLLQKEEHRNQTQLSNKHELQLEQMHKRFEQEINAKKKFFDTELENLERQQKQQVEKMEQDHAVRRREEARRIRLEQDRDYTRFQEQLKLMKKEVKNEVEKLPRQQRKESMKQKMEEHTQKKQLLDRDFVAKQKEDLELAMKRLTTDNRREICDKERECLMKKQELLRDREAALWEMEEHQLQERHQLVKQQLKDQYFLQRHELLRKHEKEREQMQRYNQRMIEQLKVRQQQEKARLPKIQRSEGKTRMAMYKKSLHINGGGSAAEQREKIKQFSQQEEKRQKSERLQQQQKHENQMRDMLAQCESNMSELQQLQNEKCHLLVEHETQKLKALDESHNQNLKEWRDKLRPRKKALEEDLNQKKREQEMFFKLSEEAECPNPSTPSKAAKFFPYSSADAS
Procedure: as §1

[16] = target: CDK7/cyclin H (Homo sapiens, UniProt P50613); assay: HotSpot Kinase Assay, CDK7/cyclin H
Procedure: as §1

COc1cc2c(Oc3ccc(NC(=O)C4(C(=O)Nc5ccc(F)cc5)CC4)cc3)ccnc2cc1OC(=O)N1CCN(C)CC1 [Compound 1-10]
IC50 [1]: < 100 nM
IC50 [2]: < 100 nM
IC50 [3]: 100 to 1000 nM
IC50 [4]: > 1000 nM
IC50 [5]: < 100 nM
IC50 [6]: 100 to 1000 nM
IC50 [7]: 100 to 1000 nM
IC50 [8]: 100 to 1000 nM
IC50 [9]: < 100 nM
IC50 [10]: < 100 nM
IC50 [11]: 100 to 1000 nM
IC50 [12]: 100 to 1000 nM
IC50 [13]: 100 to 1000 nM
IC50 [14]: > 1000 nM
IC50 [15]: 100 to 1000 nM
IC50 [16]: > 1000 nM
